Values joined by “and” are separate entries in the source; they are usually repeats but may differ in a detail not shown here. Identical values can stand only once. Like-named read-outs stand apart in the source and are kept apart here.

Consider six molecules from patent publication US20250099515A1, “LACTOBACILLUS ACIDOPHILUS TO INCREASE AGMATINE PRODUCTION BY MICROBIOTA” (SOCIETE DES PRODUITS NESTLE S.A., priority 2021, published 2025).

A short description of data set [1]: No observed effect level (max dose without toxicity). In kind it is in vivo. Conditions: [33].
In a further data set the test system is autophagy. The settings on record: depending on organ/cell type; cited from earlier work.
The conditions of data set [2]: rat, ten minutes after radiolabeled intravenous (IV) injection; cited from earlier work.
The conditions of data set [3]: cited from earlier work.
Data set [4] deals with gut microbial polyamines, longevity. Conditions: arginine intake from 0 to 9 mg/g body weight; abolished after antibiotics use; cited from earlier work.
In a further data set the test system is colonic microbiota. Briefly: Prodigest short-term colonic incubations with fecal inocula of five donors. In kind it is cell-based, human. Conditions: FIG. 5. On the procedure: Fecal material was collected from five healthy adult donors. Fecal suspensions were prepared and mixed with an internally optimized cryoprotectant. The obtained suspensions were aliquoted, flash frozen and then preserved at −80° C. (cryostock). Just before the experiment, fecal samples were defrosted and immediately added to the reactors. A short-term screening assay typically consists of a colonic incubation of a single dose of a test compound under conditions representative for the proximal large intestine, using bacterial inocula from selected donors as microbial sources. At the start of the short-term colonic incubations, test ingredients were added to a sugar-depleted nutritional medium containing basal nutrients of the colon. Because nutrients of this sugar-depleted nutritional medium will also be fermented by the colonic microbiota, a blank containing only the sugar-depleted nutritional medium (without product) was included for each donor. Finally, fecal inocula of five donors were added (healthy adult humans with no history of antibiotic use 6 months preceding the experiment). […] Reactors were incubated for 48 h at 37° C., under shaking (90 rpm) and anaerobic conditions. The incubations were performed in fully independent reactors with sufficiently high volume in order to not only ensure robust microbial fermentation, but also to allow the collection of multiple samples over time. Sample collection enables assessment of metabolite production and thus to understand the complex microbial interactions that are taking place. An assessment was made of the change in pH, and of gas, SCFA, ammonium and lactate production at the start of the incubation and after 6 h, 24 h and 48 h. Quantitative deep shotgun sequencing was performed at the start and after 24 h and 48 h of incubation. Targeted metabolic analysis of eight polyamines, an amino acid and a neurotransmitter was performed at the start of the incubation, and after 6 h, 24 h and 48 h. Targeted metabolic analysis: Eight different polyamines were targeted, more specifically putrescine, agmatine, acetyl-agmatine, omithine, spermidine, spermine, citrulline and 4-guanidinobutanoic acid. Additionally, samples were analyzed for amino acid arginine and neurotransmitter gamma-Aminobutyric acid (GABA).

In data set [5] the target is imidazoline or α-2-adrenergic receptors. The settings on record: cited from earlier work.
Data set [6] relates to Presynaptic imidazoline receptor. Conditions: Rabbit aorta; at 0.1 and 1 μM; cited from earlier work.
Data set [7] concerns the target σ2-Binding sites (Rattus norvegicus, UniProt Q5U3Y7). The settings on record: Rat stomach membranes; cited from earlier work.
Data set [8] deals with I1-Imidazoline binding sites. The settings on record: Bovine adrenomedullary cell; cited from earlier work.
The target in another data set is 5-HT3 receptor (Mus musculus, UniProt P23979). Conditions: Mouse N1E-115 cells; cited from earlier work.
Chain of 5-HT3 receptor (P23979 24-489): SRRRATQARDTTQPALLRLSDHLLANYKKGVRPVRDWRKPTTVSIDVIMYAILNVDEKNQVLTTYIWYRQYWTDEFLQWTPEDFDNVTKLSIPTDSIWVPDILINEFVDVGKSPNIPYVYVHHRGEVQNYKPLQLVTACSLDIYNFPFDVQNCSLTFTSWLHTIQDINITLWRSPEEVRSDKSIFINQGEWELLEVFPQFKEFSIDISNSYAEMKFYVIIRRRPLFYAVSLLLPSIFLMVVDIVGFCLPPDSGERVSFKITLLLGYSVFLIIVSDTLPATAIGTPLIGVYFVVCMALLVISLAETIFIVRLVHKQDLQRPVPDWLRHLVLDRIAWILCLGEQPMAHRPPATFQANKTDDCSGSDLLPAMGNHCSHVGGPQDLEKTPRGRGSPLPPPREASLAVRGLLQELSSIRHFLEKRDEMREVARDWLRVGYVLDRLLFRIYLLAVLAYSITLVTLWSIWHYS
Data set [9] deals with NMDA receptor, polyamine binding site. The settings on record: Rat cerebral cortex; cited from earlier work.
Data set [10] deals with I2-Imidazoline binding sites. The settings on record: Bovine endothelial cells; cited from earlier work.
Another data set concerns HTC rat hepatoma cells. Conditions: cited from earlier work.
The target of data set [11] is NMDA receptor, NR1-ζ/NR2-ε3 (Mus musculus, UniProt P35438+Q01098). Conditions: Recombinant receptor; cited from earlier work.
Data set [12] deals with ODC and SSAT in liver and kidney. Conditions: 456.6 mg/kg i.p., suiss female mice; cited from earlier work.
Data set [13] has as its target I1-Imidazoline binding sites. Conditions: Human platelet-purified plasma membranes; cited from earlier work.
Data set [14] deals with Nicotinic acetylcholine receptors. The settings on record: Chick retina; cited from earlier work.
Data set [15] deals with NMDA receptor, NR1-ζ/NR2-ε4 (Mus musculus, UniProt P35438+Q03391). The settings on record: Recombinant receptor; cited from earlier work.
For data set [16], the target named is I2-Imidazoline binding sites. The settings on record: Rat stomach membranes; cited from earlier work.
Data set [17] deals with I2-Imidazoline binding sites. Conditions: Human platelet-purified internal membranes; cited from earlier work.
A further data set has as its target α2B-Adrenoceptors (Homo sapiens, UniProt P18089). The settings on record: Human recombinant receptor; cited from earlier work.
In data set [18] the target is I2-Imidazoline binding sites. The settings on record: Bovine adrenal chromaffin cells; cited from earlier work.
Data set [19] addresses I2-Imidazoline binding sites. Conditions: Rabbit whole brain membranes; cited from earlier work.
The target in a further data set is T1, NMDA receptor.
T1 construct: Ki; other: Rat cerebral membrane
Conditions: Rat cerebral membrane; cited from earlier work.

Data set [20] deals with NMDA receptor, NR1-ζ/NR2-ε2 (Mus musculus, UniProt P35438+Q01097). Conditions: Recombinant receptor; cited from earlier work.
Chain of NMDA receptor, NR1-ζ/NR2-ε2 (Q01097 27-1482, other chains not shown): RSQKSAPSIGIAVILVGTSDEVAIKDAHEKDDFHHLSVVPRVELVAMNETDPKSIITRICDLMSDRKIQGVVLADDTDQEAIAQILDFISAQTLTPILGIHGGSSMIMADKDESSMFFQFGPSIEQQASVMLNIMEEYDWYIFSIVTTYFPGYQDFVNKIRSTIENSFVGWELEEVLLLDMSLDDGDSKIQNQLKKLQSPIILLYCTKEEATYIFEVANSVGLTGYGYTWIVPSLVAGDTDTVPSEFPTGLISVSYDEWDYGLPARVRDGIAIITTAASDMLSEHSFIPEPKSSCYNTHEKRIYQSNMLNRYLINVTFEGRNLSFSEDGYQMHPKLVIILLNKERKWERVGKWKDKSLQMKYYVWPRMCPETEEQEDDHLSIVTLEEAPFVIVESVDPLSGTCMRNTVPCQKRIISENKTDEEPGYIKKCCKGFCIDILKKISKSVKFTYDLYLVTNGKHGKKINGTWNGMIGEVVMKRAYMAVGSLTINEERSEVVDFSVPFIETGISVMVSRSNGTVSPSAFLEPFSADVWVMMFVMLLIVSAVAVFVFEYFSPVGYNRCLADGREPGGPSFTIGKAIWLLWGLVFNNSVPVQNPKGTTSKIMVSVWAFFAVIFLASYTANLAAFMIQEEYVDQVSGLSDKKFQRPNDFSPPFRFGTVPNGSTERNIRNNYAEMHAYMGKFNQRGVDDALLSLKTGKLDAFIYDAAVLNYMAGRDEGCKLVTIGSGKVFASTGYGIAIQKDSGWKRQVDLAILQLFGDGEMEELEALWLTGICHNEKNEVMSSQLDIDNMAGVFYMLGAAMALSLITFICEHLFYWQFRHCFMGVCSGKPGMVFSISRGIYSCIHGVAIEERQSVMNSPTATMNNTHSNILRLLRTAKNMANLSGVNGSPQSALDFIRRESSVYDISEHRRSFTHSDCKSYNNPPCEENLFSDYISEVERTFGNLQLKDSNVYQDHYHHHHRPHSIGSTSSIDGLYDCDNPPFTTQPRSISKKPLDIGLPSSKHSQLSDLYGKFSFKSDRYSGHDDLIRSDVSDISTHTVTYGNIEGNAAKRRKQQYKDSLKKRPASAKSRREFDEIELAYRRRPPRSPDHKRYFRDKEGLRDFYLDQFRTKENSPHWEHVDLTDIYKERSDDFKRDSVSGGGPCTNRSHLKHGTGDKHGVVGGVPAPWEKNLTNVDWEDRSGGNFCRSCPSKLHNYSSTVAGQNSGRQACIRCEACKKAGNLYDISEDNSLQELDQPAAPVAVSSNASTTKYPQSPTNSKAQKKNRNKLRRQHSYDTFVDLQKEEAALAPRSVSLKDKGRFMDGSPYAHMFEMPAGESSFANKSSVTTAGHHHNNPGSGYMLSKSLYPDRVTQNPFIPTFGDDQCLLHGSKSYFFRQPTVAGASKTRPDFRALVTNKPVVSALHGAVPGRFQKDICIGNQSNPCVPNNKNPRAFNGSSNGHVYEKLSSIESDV
In data set [21] the target is I2-Imidazoline binding sites. Conditions: Chicken brain membranes; cited from earlier work.
Another data set concerns the target α2A-Adrenoceptors (Homo sapiens, UniProt P08913). Conditions: Human recombinant receptor; cited from earlier work.
Data set [22] deals with σ2-Binding sites (Mus musculus, UniProt Q8VD00). The settings on record: Mouse N1E-115 cells; cited from earlier work.
Chain of σ2-Binding sites (Mus musculus, UniProt Q8VD00) (Q8VD00 whole entry): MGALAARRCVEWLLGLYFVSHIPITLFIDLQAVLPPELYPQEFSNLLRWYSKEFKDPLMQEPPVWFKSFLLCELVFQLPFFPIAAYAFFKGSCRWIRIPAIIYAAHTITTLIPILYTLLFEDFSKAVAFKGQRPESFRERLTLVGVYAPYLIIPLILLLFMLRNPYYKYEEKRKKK
Data set [23] has as its target NMDA receptor, MK-801 binding site. The settings on record: Rat cerebral cortex; cited from earlier work.
The target in another data set is α2-Adrenoceptors. The settings on record: Bovine adrenal cortex; cited from earlier work.
For data set [24], the target named is I2-Imidazoline binding sites. The settings on record: Frog whole brain membranes; cited from earlier work.
Data set [25] concerns the target I1-Imidazoline binding sites. The settings on record: Bovine ventrolateral medulla; cited from earlier work.
Data set [26] deals with I2-Imidazoline binding sites. The settings on record: Rat whole brain membranes; cited from earlier work.
The target in data set [27] is NMDA receptor, NR1-ζ/NR2-ε1 (Mus musculus, UniProt P35436+P35438). Conditions: Recombinant receptor; cited from earlier work.
Chain of NMDA receptor, NR1-ζ/NR2-ε1 (P35436 20-1464 limits assumed, other chains not shown): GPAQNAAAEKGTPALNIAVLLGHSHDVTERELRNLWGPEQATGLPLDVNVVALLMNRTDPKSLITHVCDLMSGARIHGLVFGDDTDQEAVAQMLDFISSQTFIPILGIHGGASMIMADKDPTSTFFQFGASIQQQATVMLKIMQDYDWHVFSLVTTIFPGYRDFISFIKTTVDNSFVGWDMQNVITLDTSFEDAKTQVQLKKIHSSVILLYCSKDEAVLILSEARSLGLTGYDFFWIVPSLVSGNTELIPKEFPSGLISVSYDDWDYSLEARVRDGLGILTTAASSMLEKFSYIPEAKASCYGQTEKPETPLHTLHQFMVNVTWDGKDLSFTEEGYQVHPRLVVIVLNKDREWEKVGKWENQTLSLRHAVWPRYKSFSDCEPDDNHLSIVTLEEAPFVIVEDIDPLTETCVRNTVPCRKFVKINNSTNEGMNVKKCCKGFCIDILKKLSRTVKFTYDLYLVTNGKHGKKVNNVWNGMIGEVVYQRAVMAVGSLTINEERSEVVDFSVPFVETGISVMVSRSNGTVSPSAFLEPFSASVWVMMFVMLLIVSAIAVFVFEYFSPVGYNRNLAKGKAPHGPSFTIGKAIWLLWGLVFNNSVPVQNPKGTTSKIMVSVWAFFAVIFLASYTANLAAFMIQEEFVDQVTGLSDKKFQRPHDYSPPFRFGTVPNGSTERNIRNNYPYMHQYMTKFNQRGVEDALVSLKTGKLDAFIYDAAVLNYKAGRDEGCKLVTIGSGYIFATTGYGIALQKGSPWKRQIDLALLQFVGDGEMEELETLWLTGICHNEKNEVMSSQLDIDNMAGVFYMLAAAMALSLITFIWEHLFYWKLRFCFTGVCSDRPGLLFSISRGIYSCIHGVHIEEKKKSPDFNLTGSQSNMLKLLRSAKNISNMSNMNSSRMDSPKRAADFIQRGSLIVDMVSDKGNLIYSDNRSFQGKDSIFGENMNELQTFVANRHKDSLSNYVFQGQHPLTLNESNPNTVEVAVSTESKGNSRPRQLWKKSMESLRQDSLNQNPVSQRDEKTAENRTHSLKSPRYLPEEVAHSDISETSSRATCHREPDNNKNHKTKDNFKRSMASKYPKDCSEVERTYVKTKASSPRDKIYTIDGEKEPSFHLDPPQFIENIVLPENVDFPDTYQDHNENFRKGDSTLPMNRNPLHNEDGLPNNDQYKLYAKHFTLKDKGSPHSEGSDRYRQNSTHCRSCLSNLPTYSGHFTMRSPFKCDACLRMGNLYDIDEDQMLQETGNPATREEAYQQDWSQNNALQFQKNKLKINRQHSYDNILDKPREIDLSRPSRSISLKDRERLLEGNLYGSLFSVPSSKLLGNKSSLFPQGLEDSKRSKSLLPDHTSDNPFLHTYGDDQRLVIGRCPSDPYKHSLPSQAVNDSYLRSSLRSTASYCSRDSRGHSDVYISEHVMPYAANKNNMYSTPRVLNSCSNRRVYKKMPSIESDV
The next data set concerns the target α-2 adrenoreceptors. The settings on record: depending on organs/cell type; read-out: Affinity for α-2 adrenoreceptors (Ki); cited from earlier work.
The target of a further data set is α2C-Adrenoceptors (Homo sapiens, UniProt P18825). The settings on record: Human recombinant receptor; cited from earlier work.
Chain of α2C-Adrenoceptors (P18825 whole entry): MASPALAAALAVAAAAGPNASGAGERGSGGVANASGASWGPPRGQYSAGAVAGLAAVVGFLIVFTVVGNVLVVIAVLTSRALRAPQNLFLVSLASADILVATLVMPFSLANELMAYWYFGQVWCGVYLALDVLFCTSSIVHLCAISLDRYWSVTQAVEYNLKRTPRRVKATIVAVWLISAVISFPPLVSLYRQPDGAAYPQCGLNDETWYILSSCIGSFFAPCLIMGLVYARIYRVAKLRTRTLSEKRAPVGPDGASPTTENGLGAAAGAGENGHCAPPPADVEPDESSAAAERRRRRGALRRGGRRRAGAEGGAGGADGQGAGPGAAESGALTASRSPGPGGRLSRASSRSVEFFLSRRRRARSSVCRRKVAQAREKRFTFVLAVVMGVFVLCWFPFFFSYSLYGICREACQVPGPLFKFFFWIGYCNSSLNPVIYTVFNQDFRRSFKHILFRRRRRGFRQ
Data set [28] has as its target I1-Imidazoline binding sites. Conditions: Rat stomach membranes; cited from earlier work.
In data set [29] the target is Presynaptic imidazoline receptor. The settings on record: Human atrial appendages; cited from earlier work.
The target in data set [30] is I2-Imidazoline binding sites. The settings on record: Human atrial appendages; cited from earlier work.
Data set [31] has as its system mouse kidney proximal tubule, Ras transformed NIH-3T3 fibroblast, mouse glomerular mesangial, human Schwann tumor, rat glomerular endothelial cells, human …. Conditions: several ex-vivo and in-vitro cell assays; cited from earlier work.
Data set [32] has as its target I2-Imidazoline binding sites. Conditions: Rat aorta smooth muscle cells; cited from earlier work.
For data set [33] the following is noted: human, putrescine in test meal; cited from earlier work.
The next data set relates to polyamines synthesis. Conditions: mouse model of osteoporosis; cited from earlier work.

Chain of σ2-Binding sites (Rattus norvegicus, UniProt Q5U3Y7) (Q5U3Y7 whole entry): as the sequence (Q8VD00 whole entry) above, with L4V, A5T, L26M, V33L, L71F, A105V, L118I, V127I, S136N, Y169F counted along it
Chain of α2A-Adrenoceptors (P08913 whole entry): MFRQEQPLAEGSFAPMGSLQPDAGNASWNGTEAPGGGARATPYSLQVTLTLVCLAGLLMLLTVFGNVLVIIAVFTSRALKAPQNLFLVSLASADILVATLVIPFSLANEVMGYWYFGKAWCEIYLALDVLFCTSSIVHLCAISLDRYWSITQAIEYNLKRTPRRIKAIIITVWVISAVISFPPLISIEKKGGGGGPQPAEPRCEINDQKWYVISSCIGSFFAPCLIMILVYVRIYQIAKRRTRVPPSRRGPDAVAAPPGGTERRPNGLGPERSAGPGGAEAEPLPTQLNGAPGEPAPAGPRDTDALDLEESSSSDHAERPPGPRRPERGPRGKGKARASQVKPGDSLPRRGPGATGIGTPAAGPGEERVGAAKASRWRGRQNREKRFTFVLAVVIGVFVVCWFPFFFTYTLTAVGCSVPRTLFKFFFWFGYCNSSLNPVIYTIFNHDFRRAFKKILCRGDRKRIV
Chain of α2B-Adrenoceptors (P18089 whole entry): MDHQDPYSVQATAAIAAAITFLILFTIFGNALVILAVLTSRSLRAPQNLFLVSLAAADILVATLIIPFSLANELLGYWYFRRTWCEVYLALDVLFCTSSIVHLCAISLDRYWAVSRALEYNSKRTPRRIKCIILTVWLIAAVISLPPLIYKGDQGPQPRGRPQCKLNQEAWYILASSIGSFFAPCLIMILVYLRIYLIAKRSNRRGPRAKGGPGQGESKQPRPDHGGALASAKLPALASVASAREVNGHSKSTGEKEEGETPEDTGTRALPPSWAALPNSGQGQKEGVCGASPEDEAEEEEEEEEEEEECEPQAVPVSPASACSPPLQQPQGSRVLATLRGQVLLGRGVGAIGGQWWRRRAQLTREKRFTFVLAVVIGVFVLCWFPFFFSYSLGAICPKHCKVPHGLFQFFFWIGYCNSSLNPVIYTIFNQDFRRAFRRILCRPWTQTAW

For the molecule `NCCCCNCCCN` [Spermidine, spermidine], the “no observed effect level (max dose without toxicity), total amount in brackets” value in [1] is reported as “(~5.4 g)”. Moreover, in the data set with autophagy, the “Dose required for cytoprotective effect/e.g. autophagy” value is 10 to 100 µM. In addition, the plasma decrease in data set [2] is 89%. The “no observed effect level (max dose without toxicity)” value in [3] ([33]) was 83 mg/kg body mg/kg body weight/day.
A word on the Ki: it is a measure of affinity in units of concentration, obtained from inhibition or displacement. As for `N=C(N)NCCC[C@H](N)C(=O)O` [Arginine, arginine], in data set [4], the “effect on fecal concentration of putrescine and spermidine” value is on record as “increased”. Moreover, the agmatine produced result in the data set on colonic microbiota (stool sample of donor A) is on record as “about 5 μM”; in the data set on colonic microbiota (stool sample of donor B), “about 3 μM”; with colonic microbiota (stool sample of donor C), “did not produce agmatine”; in the data set with colonic microbiota (stool sample of donor D), “did not produce agmatine”; in the data set with colonic microbiota (stool sample of donor E), “about 5 μM”. In addition, in [5], the Ki is 5 mM.
As a reminder, the IC50 is the point on the concentration scale where inhibition reaches its midpoint. For the molecule `NCCCCN=C(N)N` [Agmatine, (4-aminobutyl) guanidine], in [6], the Inhibition entry was “Inhibition at 0.1 and 1 μM”. Moreover, the Ki on σ2-Binding sites [7] was 668 µM; in [8] it was 127 nM; at 5-HT3 receptor, over 1 mM; in data set [9], 14.8 µM; in [10], 240 nM; in data set [13] it was 33 nM. For the same molecule, the inhibition constant Ki in data set [16] is 266 µM; in data set [17] it was 74.4 µM; at α2B-Adrenoceptors it was 164 µM; in data set [18], 6 µM; in [19], 856 µM; at NMDA receptor, 50 µM. Further, the Ki in data set [21] was 630 nM; on α2A-Adrenoceptors it was 47 µM; in data set [23] it was 219 µM; at α2-Adrenoceptors it was 11 to 20 µM and 17 µM; in data set [24] it was 7.5 µM; in data set [25], 700 nM. Further, the inhibition constant Ki in data set [26] is 417 µM; at α-2 adrenoreceptors, 0.8 to 164 µM; on α2C-Adrenoceptors, 26.3 µM; in data set [28], 98 nM; in data set [29], over 300 µM; in [30], over 100 µM. Besides, the Ki in data set [32] is 240 nM. Moreover, the IC50 is 708 µM at 5-HT3 receptor; 326 µM in [11]; over 1 mM in data set [14]; 289 µM in data set [15]; 330 µM in data set [20]; over 1 mM on σ2-Binding sites [22]. Also, the IC50 in data set [27] is 286 µM. The “level at which agmatine interferes with polyamine metabolism, nitric oxide synthase and promotes antiproliferative effects” value was 0.01 mM in the data set with HTC rat hepatoma cells and 1 mM in data set [31]. Besides, the “effect on ODC and SSAT in liver and kidney” value in [12] was “inhibition of ODC and activation of SSAT”. For the same molecule, in [12], the “effect on epithelial cell proliferation in kidney renal tubule” value is on record as “partial reduction of epithelial cell proliferation”. Besides, the “no observed effect level (max dose without toxicity)” value in [3] (in vivo) is listed as 2.67 g daily.
As to `NCCCCN` [Putrescine, putrescine], the “no observed effect level (max dose without toxicity), total amount in brackets” value in [1] is on record as “(~12 g)”. The recovered in blood result in [33] is “Up to 20%”. In addition, the plasma decrease in [2] was 67%. Moreover, in data set [3] ([33]), the “no observed effect level (max dose without toxicity)” value was 180 mg/kg body mg/kg body weight/day.
`NCCCNCCCCNCCCN` [Spermine, spermine]: the plasma decrease in data set [2] was 30%.
For the molecule `CC(=O)NCC(=O)O.CC(=O)NCC(=O)O.N=C(N)c1ccc(N=NNc2ccc(C(=N)N)cc2)cc1` [diminazene aceturate], the “effect on warm-induced bone benefits” value with polyamines synthesis was “limited the warm-induced beneficial effects”.
